The source of these data is US20240132559A1, “COMPOSITIONS AND METHODS FOR MODULATING MYC EXPRESSION” (FLAGSHIP PIONEERING INNOVATIONS V, INC., priority 2020, published 2024).

“Also recorded” adds a separate entry of the source.

The test system of assay [1] is MYC. As to the kind of experiment: MYC mRNA expression by qPCR in human HCC cell lines after LNP transfection. In kind it is cell-based. As to conditions: HepG2, Hep3B and SKHEP1. On the procedure: In this example, dCas9-KRAB mRNA was delivered to human HCC cell lines (HepG2, Hep3B and SKHEP1) with individual sgRNA (Table 1 and FIG. 1A-B) targeting it to the CTCF motif (GD-28616), CTCF “anchor” site (GD-28859), or the MYC promoter (GD-28617). The effector mRNA and sgRNA were co-delivered using LNP delivery with SSOP. For controls, both (1) dCas9 (no effector) combined with sgRNA, and (2) untreated cells were used to assess changes. HCC cells were seeded in 96-well plates in growth media (5000 cell/well). LNP formulations (2-2.5 ug/ml) were then added to the cells to transfect the mRNA and sgRNA. All treatments were done in biological triplicate. Timepoints ranging from 24-168 hours were assessed for MYC expression and cell viability. RNA was isolated from four independent experiments using the RNeasy® plus 96-well Kit (Qiagen) following the Manufacture's protocol. RNA samples were retrotranscribed to cDNA using LunaScript® RT SuperMix Kit (NEB) and analyzed by quantitative PCR (qPCR) (in technical triplicates) using a MYC specific TaqMan™ primer/probe set assay with the TaqMan™ Fast Advanced Master Mix (Thermo Scientific). MYC expression was quantified relative to the expression of GAPDH reference genes using the ΔΔCt method. The untreated and dCas9(no-effector) samples were used as calibrators. […]
(In general: In qPCR the cycle at which signal appears reflects the starting amount.)

Assay [2] relates to HCC cells (HepG2, Hep3B, SKHEP1, SNU-182, SNU-449). Nature of the assay: Cell viability (CellTiter-GLO) of human HCC cell lines. As to conditions: 72 and 168 hours. Format: cell-based. The text has this: This example describes down-regulating MYC1 expression by targeting KRAB effector fused to zinc finger domains to the upstream region directly adjacent to the CTCF motif (GD-28859). In this example, zinc finger-directed KRAB effectors (ZF-KRAB effectors) were designed to bind the anchor site at the DNA region targeted by GD-28859 (FIG. 4A). 7 constructs (dCas-KRAB/GD-59, ZF1-KRAB, ZF2-KRAB, ZF3-KRAB, ZF4-KRAB, ZF5-KRAB, and ZF6-KRAB) were designed and screened in human HCC models (HepG2, Hep3B, SKHEP1). Negative controls for these experiments included untreated cells and dCas9-KRAB/GD-28859 was used as positive control. RNA was isolated from two independent experiments, each done in biological triplicate, using the Rneasy® Plus 96-well Kit (Qiagen) following the Manufacture's protocol. RNA samples were retrotranscribed to cDNA using LunaScript® RT SuperMix Kit (NEB) and analyzed by quantitative PCR (qPCR) (in technical triplicates) using a MYC specific Taqman primer/probe set assay with the TaqMan™ Fast Advanced Master Mix (Thermo Scientific). MYC expression was quantified relative to the expression of GAPDH reference genes using the ΔΔCt method, the untreated and dCas9(no-effector) samples were used as calibrators. Cell viability was assessed by ATP quantification using CellTiter-GLO® Luminescent Cell Viability Assay (Promega #G9241). […]
For orientation: In ATP-based viability assays light output follows the ATP content of the culture.

In assay [3] the test system is MYC super-enhancer and MYC promoter region. As to the kind of experiment: Targeted bisulfite sequencing of super-enhancer and promoter regions in NCI-H2009. Format: cell-based, human. As to conditions: guides 29833 and 29914, 72 hours. On the procedure:
The CRISPR-dCas9 system was modified by tethering it to epigenetic repressor: MQ1. These molecules modulate transcriptional repression methylating the CpG nucleotides of the DNA. The effector mRNA and super-enhancer guide RNAs (29833 and 29914) were co-delivered using LNP delivery with SSOP with mRNA delivery of GFP or a dCAS9-no effector construct (dCas9-NE) as negative controls. NCSLC cell line NCI-H2009 was seeded in a 6 well plates in growth media (˜100000 cells/well). LNP formulations (2.5 ug/ml) were then added to the cells to transfect the effector mRNA/guide RNA then incubated for 72 hours. DNA was isolated using Lucigen QuickExtract™ DNA extraction kit and methylated regions were determined using targeted bisulfite sequencing of the promoter and super-enhancer regions.

The test system of assay [4] is Hep 3B cells. Nature of the assay: JQ1 dose response viability with bi-cistronic ZF9-MQ1_ZF3-KRAB (CellTiter-GLO). Format: cell-based. The note with it: Homo sapiens, Hep3B, 72 h. The source says: (§1) This example evaluates the efficacy of bi-cistronic ZF9-MQ1_ZF3-KRAB in combination with JQ1 (BET inhibitor) in multiple HCC cell lines. […] Later generation BET inhibitors are currently being evaluated in the clinic for hematologic indications; however, their toxicity profile have limited their use. Combination treatments that can increase the potency of BET inhibitors at reduced dose levels could improve BET inhibitor tolerability.
(§2) To evaluate potential synergy between bi-cistronic ZF9-MQ1_ZF3-KRAB and JQ1, Hep 3B or SK-HEP-1 cells were plated in 96 well plates at 10,000 cells per well. Cells were then treated with JQ1 with a dose range between 0.1 and 25 μM, with serial dilution of 1:2. Lipid mix carrying bi-cistronic ZF9-MQ1_ZF3-KRAB was then added to a set of the wells at a dose of 0.1 or 0.6 μg/mL. A set of cells was treated with JQ1 alone to use as control. Following 72-hour treatment, cells were lysed with the CellTiter-GLO® reagent and luminescence was quantified using the Glo Max. Relative cell viability was calculated by averaging the untreated values and dividing each experimental luciferase value by that average.

In assay [5] the test system is SK-HEP-1 cells. The description is as above. Format: cell-based. The note with it: Homo sapiens, SK-HEP1, 72 h, SKHEP-1, 72-hour.
Description: as §1, §2

The subject of assay [6] is A549 cells. As to the kind of experiment: A549 viability with ZF9-MQ1 and small molecule inhibitors, alone and combined. In kind it is cell-based, human. The note with it: each agent separately.
The test system of assay [7] is SKHEP1 and Hep 3B cells. As to the kind of experiment: IC50 of sorafenib or JQ1 in combination with bi-cistronic ZF9-MQ1_ZF3-KRAB. The note with it: with bi-cistronic ZF9-MQ1_ZF3-KRAB at 0.6 and 0.1 ug/ml. In kind it is cell-based, human.
Assay [8] has as its system A549 cells. As to the kind of experiment: A549 cell viability, ZF9-MQ1 alone and with BET or MEK inhibitors (CellTiter-GLO). In kind it is cell-based, human. As to conditions: 72-hour incubation, single agent. On the procedure: This example evaluates the effect of ZF9-MQ1 construct on A549 cell viability when used in combination with varying concentrations of JQ1 inhibitor.
A549 cells were seeded at 4,000 cells per well in duplicate plates for cell viability analysis. The 96-well plates were treated in triplicate with GFP or ZF9-MQ1 loaded LNPs at 0.5 ug/mL or 1.0 μg/mL in combination with increasing concentrations of the BET inhibitor JQ1 (concentrations up to 6.25 uM) and incubated. Untreated cells and GFP treated cells were used as controls. After 72-hour incubation, one 96-well plate was lysed with CellTiter-GLO® and luminescence was quantified using the GloMax® Discovery plate reader.
This example evaluates the effect of ZF9-MQ1 construct on A549 cell viability when used in combination with varying concentrations of BET762 inhibitor.
(§3) A549 cells were seeded at 4,000 cells per well in duplicate plates for cell viability analysis. The 96-well plates were treated in triplicate with GFP or ZF9-MQ1 loaded LNPs at 0.5 μg/mL or 1.0 μg/mL in combination with increasing concentrations (concentrations up to 1.25 uM) of the BET inhibitor BET762 and incubated. Untreated cells and GFP treated cells were used as controls. After 72-hour incubation, one 96-well plate was lysed with CellTiter-GLO® and luminescence was quantified using the GloMax® Discovery plate reader.
This example evaluates the effect of ZF9-MQ1 construct on A549 cell viability when used in combination with varying concentrations of BET inhibitor, Birabresib.
as §3, with “0.625 uM for 0.5 μg/ml ZF9-MQ1 treated cells and up to 0.313 uM for 1.0 μg/ml ZF9-MQ1 treated cells)” for “1.25 uM)”, “Birabresib” for “BET762”
This example evaluates the effect of ZF9-MQ1 construct on A549 cell viability when used in combination with varying concentrations of MEK inhibitor, Trametinib.
A549 cells were seeded at 4,000 cells per well in duplicate plates for cell viability analysis. The 96-well plates were treated in triplicate with GFP or ZF9-MQ1 loaded LNPs at 0.5 μg/mL or 1.0 μg/mL in combination with increasing concentrations (concentrations up to 0.05 uM) of the MEK inhibitor Trametinib and incubated. […] After 72-hour incubation, one 96-well plate was lysed with CellTiter-GLO® and luminescence was quantified using the GloMax® Discovery plate reader.

Setting [9] is: bi-cistronic ZF9-MQ1_ZF3-KRAB 0 μg/ml.
Setting [10] is: bi-cistronic ZF9-MQ1_ZF3-KRAB 0.1 μg/ml.
The mark [11] stands for this setting: bi-cistronic ZF9-MQ1_ZF3-KRAB 0.6 μg/ml.

Turning to “dCas9-MQ1: dCas9 fused to MQ1, SEQ ID NO: 35”, the “MYC mRNA down-regulation” value in assay [1] (72 hours) is reported as 50-90%. Moreover, the “MYC expression down-regulation (in words)” value in assay [1] was “significantly greater effect on MYC expression than any of the human dCas9-DNMTs examined or dCas9-KRAB; also recorded: down-regulated MYC expression”. Further, the “effect on viability (in words)” value in assay [2] (HepG2 and Hep3B) is “dramatically decreased viability”; in assay [2] (SK-HEP-1), “minimally affected”. The “methylation of the distal promoter region” value in assay [3] is recorded as “about 50%”.

A word on the IC50: it is the midpoint of a concentration-inhibition curve. Consider `Cc1sc2c(c1C)C(c1ccc(Cl)cc1)=N[C@@H](CC(=O)OC(C)(C)C)c1nnc(C)n1-2` [JQ1], for which the IC50 is 6600 nM in assay [4] (setting [9]); 600 nM in assay [4] (setting [10]); 200 nM in assay [4] (setting [11]); > 25000 nM in assay [5] (setting [9]); 1900 nM in assay [5] (setting [10]); 1100 nM in assay [5] (setting [11]). Also, in assay [6], the “inhibition of A549 cell viability, single agent” value is given as “inhibited cell viability of A549 cells”. Further, the “IC50 of JQ1” value in assay [7] (Hep 3B) and in assay [7] (SKHEP1) was “reduced” each time. Moreover, in assay [8], the “A549 cell viability, each agent separately” value was “inhibited cell viability”.
